Data on 35 compounds can be found in ChEMBL document CHEMBL3588836, “Development of Quinoline-2,4(1H,3H)-diones as Potent and Selective Ligands of the Cannabinoid Type 2 Receptor” (J Med Chem, 2015).

The term IC50 denotes the concentration that gives 50% inhibition. As a reminder, the Emax is the maximal effect, on the per cent scale that the assay sets.

A value given as a limit tells only on which side of the number the result lay.

In experiment [1] the target is T1, Cannabinoid receptor 2 (Homo sapiens, UniProt P34972). Kind of experiment: Antagonist activity against CB2R (unknown origin) CHO cells stably expressing Galpha16 assessed as inhibition of CP55940-induced increase in intracellular calcium level pre-treated 10 mins before CP55940 stimulation by microplate reader based assay. The format is functional, cell-based. Background: A change in cytosolic calcium serves as a functional read-out for many receptors and channels.
T1 sequence (P34972 whole entry): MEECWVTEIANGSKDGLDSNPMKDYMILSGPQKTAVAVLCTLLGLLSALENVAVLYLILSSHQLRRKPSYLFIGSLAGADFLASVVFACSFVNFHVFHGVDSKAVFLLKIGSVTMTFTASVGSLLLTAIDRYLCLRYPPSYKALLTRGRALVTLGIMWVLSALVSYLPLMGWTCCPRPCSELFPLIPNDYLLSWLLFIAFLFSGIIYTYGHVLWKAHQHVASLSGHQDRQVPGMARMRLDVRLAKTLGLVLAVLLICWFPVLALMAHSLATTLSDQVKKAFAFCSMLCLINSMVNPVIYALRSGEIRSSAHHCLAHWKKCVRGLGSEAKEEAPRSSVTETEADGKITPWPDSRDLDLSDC

Experiment [2] deals with T2, Cannabinoid receptor 1 (Homo sapiens, UniProt P21554). Format: functional, cell-based, CHO.
T2 sequence (P21554 whole entry): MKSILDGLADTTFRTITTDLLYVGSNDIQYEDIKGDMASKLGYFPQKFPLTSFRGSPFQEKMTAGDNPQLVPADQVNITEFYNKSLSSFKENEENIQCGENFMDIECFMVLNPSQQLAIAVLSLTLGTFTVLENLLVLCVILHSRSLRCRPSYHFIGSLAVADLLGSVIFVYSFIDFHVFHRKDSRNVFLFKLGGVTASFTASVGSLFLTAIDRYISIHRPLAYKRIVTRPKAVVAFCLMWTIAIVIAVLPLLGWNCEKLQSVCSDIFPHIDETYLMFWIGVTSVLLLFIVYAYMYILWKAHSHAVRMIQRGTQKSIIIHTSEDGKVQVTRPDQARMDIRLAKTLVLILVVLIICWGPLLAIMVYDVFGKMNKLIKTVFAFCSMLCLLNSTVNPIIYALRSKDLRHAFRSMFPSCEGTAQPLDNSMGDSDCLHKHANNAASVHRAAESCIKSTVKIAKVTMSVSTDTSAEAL
The subject of experiment [3] is CHO. Kind of experiment: Selectivity index, ratio of IC50 for CB1R (unknown origin) CHO cells stably expressing Galpha16 to IC50 for CB2R (unknown origin) CHO cells stably expressing Galpha16. The format is cell-based. The settings on record: Homo sapiens.
Experiment [4] concerns the target T1, Cannabinoid receptor 2. Kind of experiment: Antagonist activity against CB2R (unknown origin) CHO cells stably expressing Galpha16 assessed as inhibition of CP55940-induced increase in intracellular calcium level pre-treated 10 mins before CP55940 stimulation by microplate reader based assay relative to […]. The format is functional, cell-based.
The test system of experiment [5] is CHO. Kind of experiment: Selectivity index, ratio of EC50 for CB1R (unknown origin) CHO cells stably expressing Galpha16 to EC50 for CB2R (unknown origin) CHO cells stably expressing Galpha16. The settings on record: Homo sapiens. The format is cell-based.
Experiment [6] addresses T1, Cannabinoid receptor 2. Kind of experiment: Agonist activity at CB2R (unknown origin) CHO cells stably expressing Galpha16 assessed as increase in intracellular calcium level by microplate reader based assay relative to CP55940. The format is functional, cell-based.
The target in experiment [7] is T1, Cannabinoid receptor 2. Kind of experiment: Agonist activity at CB2R (unknown origin) CHO cells stably expressing Galpha16 assessed as increase in intracellular calcium level by microplate reader based assay. The format is functional, cell-based.
Experiment [8] concerns the target T2, Cannabinoid receptor 1. Kind of experiment: Agonist activity at CB1R (unknown origin) CHO cells stably expressing Galpha16 assessed as increase in intracellular calcium level by microplate reader based assay. Format: functional, cell-based.

`CCCCCN1C(=O)/C(=C/NC23CC4CC(CC(C4)C2)C3)C(=O)c2cc(OC)cc(C)c21`: the IC50 was 45.3 nM at Cannabinoid receptor 2 [1] and over 10000 nM at Cannabinoid receptor 1 [2]. Moreover, the Ratio IC50 in the experiment with CHO [3] is over 221. In addition, the Emax on Cannabinoid receptor 2 [4] worked out at 102%.
In the case of `CCCCCN1C(=O)/C(=C/NC2CCCCC2)C(=O)c2cc(Br)ccc21`, the concentration for half-maximal inhibition (IC50) on Cannabinoid receptor 2 [1] is 1680 nM; against Cannabinoid receptor 1 [2], over 10000 nM. Moreover, in the experiment on CHO [3], the Ratio IC50 is over 5.95. Further, at Cannabinoid receptor 2 [4], the Emax turned out to be 96.8%.
The like results for `CCCCCN1C(=O)/C(=C/NC2CCCCC2)C(=O)c2ccc(OC)cc21` were, in that order, 194 nM, over 10000 nM, over 51.5 and 97.4%.
In the same order, the values of `CCCCCN1C(=O)/C(=C/NC23CC4CC(CC(C4)C2)C3)C(=O)c2cc(Cl)ccc21` are 957 nM, over 10000 nM, over 10.4 and 100%.
`CCCCCN1C(=O)/C(=C/NC2CCCCC2)C(=O)c2cc(C(F)(F)F)ccc21`: the IC50 on Cannabinoid receptor 2 [1] and against Cannabinoid receptor 1 [2] was over 10000 nM each time.
Consider `CCCCCN1C(=O)/C(=C/NC2CCCCC2)C(=O)c2cc(Cl)cc(C)c21`, for which the IC50 on Cannabinoid receptor 2 [1] was 1480 nM; against Cannabinoid receptor 1 [2] it was over 10000 nM. The Ratio IC50 in the experiment with CHO [3] was over 6.76. Further, at Cannabinoid receptor 2 [4], the Emax worked out at 95%.
Take `CCCCCN1C(=O)/C(=C/NC2CCCCC2)C(=O)c2cc(OC)cc(OC)c21`: the IC50 on Cannabinoid receptor 2 [1] and at Cannabinoid receptor 1 [2] was over 10000 nM throughout.
For `CCCCCN1C(=O)/C(=C/NC2CCCCC2)C(=O)c2ccc(Cl)cc21`, the IC50 at Cannabinoid receptor 2 [1] and at Cannabinoid receptor 1 [2] was over 10000 nM in each case.
Take `CCCCN1C(=O)/C(=C/NC(CC)CC)C(=O)c2cccc(C)c21`: the Ratio EC50 in the experiment with CHO [5] is over 88.5. The Emax at Cannabinoid receptor 2 [6] was determined as 137%. The values for the EC50 at Cannabinoid receptor 2 [7] (read-out: EC50), at Cannabinoid receptor 2 [7] (read-out: pEC50 (converted)) and at Cannabinoid receptor 1 [8] were 113 nM, 112 nM and over 10000 nM, respectively.
For `CCCCCN1C(=O)/C(=C/NC2CCCCC2)C(=O)c2cc(C)ccc21`, the IC50 at Cannabinoid receptor 2 [1] and against Cannabinoid receptor 1 [2] was over 10000 nM in each case.
As for `CCCCN1C(=O)/C(=C/NC2CCCCC2)C(=O)c2cc(OC)ccc21`, the values for the concentration for half-maximal inhibition (IC50) on Cannabinoid receptor 2 [1] and against Cannabinoid receptor 1 [2] were 4190 nM and over 10000 nM, respectively. In addition, the Ratio IC50 in the experiment on CHO [3] is over 2.39. The Emax at Cannabinoid receptor 2 [4] amounted to 99.7%.
Regarding `CCCCN1C(=O)/C(=C/NC(C)(C)CC)C(=O)c2cccc(C)c21`, in the experiment with CHO [5], the Ratio EC50 was determined as 26.8. At Cannabinoid receptor 2 [6], the Emax stood at 158%. Also, the figures for the EC50 on Cannabinoid receptor 2 [7] (read-out: EC50), on Cannabinoid receptor 2 [7] (read-out: pEC50 (converted)) and on Cannabinoid receptor 1 [8] were 75.3 nM, 75 nM and 2020 nM, respectively.
Consider `CCCCCN1C(=O)/C(=C/NC2CCCCC2)C(=O)c2cccc(C)c21`, for which, in the experiment on CHO [5], the Ratio EC50 is over 31.3. At Cannabinoid receptor 2 [6], the Emax was 70.3%. For the same compound, the EC50 is 320 nM at Cannabinoid receptor 2 [7] (read-out: EC50) and over 10000 nM at Cannabinoid receptor 1 [8].
`C=CCCN1C(=O)/C(=C/NC(C)(C)C)C(=O)c2cccc(C)c21`: in the experiment with CHO [5], the Ratio EC50 is over 133. Besides, the Emax on Cannabinoid receptor 2 [6] was 92.6%. The EC50 on Cannabinoid receptor 2 [7] (read-out: EC50) is 75.3 nM; at Cannabinoid receptor 1 [8] it was over 10000 nM.
As for `CCCN1C(=O)/C(=C/NC(C)(C)C)C(=O)c2cccc(C)c21`, in the experiment with CHO [5], the Ratio EC50 is over 275. Besides, the Emax on Cannabinoid receptor 2 [6] is 126%. Further, the results for the EC50 on Cannabinoid receptor 2 [7] (read-out: EC50) and on Cannabinoid receptor 1 [8] were 36.3 nM and over 10000 nM, respectively.
Take `CCCCN1C(=O)/C(=C/NC(C)(C)CO)C(=O)c2cccc(C)c21`: the Ratio EC50 with CHO [5] was found to be 13.5. Moreover, the maximal effect (Emax) at Cannabinoid receptor 2 [6] is 127%. Also, the figures for the EC50 on Cannabinoid receptor 2 [7] (read-out: EC50), on Cannabinoid receptor 2 [7] (read-out: pEC50 (converted)) and at Cannabinoid receptor 1 [8] were 41.3 nM, 41 nM and 557 nM, respectively.
In the case of `CCCCCN1C(=O)/C(=C/NC2CCCCC2)C(=O)c2cc(Cl)ccc21`, the IC50 is 1510 nM on Cannabinoid receptor 2 [1] and over 10000 nM on Cannabinoid receptor 1 [2]. Further, in the experiment on CHO [3], the Ratio IC50 was over 6.62. Moreover, at Cannabinoid receptor 2 [4], the Emax was determined as 102%.
For the compound `CCCCN/C=C1\C(=O)c2cccc(C)c2N(CCCC)C1=O`, in the experiment with CHO [5], the Ratio EC50 is over 110. Also, the Emax on Cannabinoid receptor 2 [6] was 64.7%. Moreover, the EC50 at Cannabinoid receptor 2 [7] (read-out: EC50) is 90.7 nM; at Cannabinoid receptor 2 [7] (read-out: pEC50 (converted)), 91 nM; on Cannabinoid receptor 1 [8], over 10000 nM.
With `CCCCCCN1C(=O)/C(=C/NC2CCCCC2)C(=O)c2cc(OC)ccc21`, the 50% inhibitory concentration (IC50) on Cannabinoid receptor 2 [1] and at Cannabinoid receptor 1 [2] was over 10000 nM in each case.
As for `CCCCCN1C(=O)/C(=C/NC2CCCCC2)C(=O)c2cc(C(C)(C)C)ccc21`, the IC50 at Cannabinoid receptor 2 [1] and on Cannabinoid receptor 1 [2] was over 10000 nM throughout.
Consider `CCCCCN1C(=O)/C(=C/NC2CCCCC2)C(=O)c2cc(OC)cc(C)c21`, for which the figures for the IC50 on Cannabinoid receptor 2 [1] and on Cannabinoid receptor 1 [2] were 93.3 nM and over 10000 nM, respectively. Also, in the experiment with CHO [3], the Ratio IC50 is over 107. The Emax on Cannabinoid receptor 2 [4] was 106%.
As to `CCN1C(=O)/C(=C/NC2CCCCC2)C(=O)c2cccc(C)c21`, in the experiment on CHO [5], the Ratio EC50 was over 0.559. Further, the Emax on Cannabinoid receptor 2 [6] worked out at 95%. Moreover, the EC50 at Cannabinoid receptor 2 [7] (read-out: EC50) is 17900 nM; at Cannabinoid receptor 1 [8] it was over 10000 nM.
Consider `CCCCN1C(=O)/C(=C/NCC2CCC2)C(=O)c2cccc(C)c21`, for which the Ratio EC50 in the experiment with CHO [5] is over 45.5. The maximal response (Emax) on Cannabinoid receptor 2 [6] came to 87.7%. In addition, the values for the EC50 on Cannabinoid receptor 2 [7] (read-out: EC50) and on Cannabinoid receptor 1 [8] were 220 nM and over 10000 nM, respectively.
As to `CCCCN1C(=O)/C(=C/NCC(C)C)C(=O)c2cccc(C)c21`, the Ratio EC50 in the experiment with CHO [5] is over 226. For the same compound, the Emax at Cannabinoid receptor 2 [6] was determined as 99%. Further, the EC50 at Cannabinoid receptor 2 [7] (read-out: EC50) is 44.3 nM; on Cannabinoid receptor 2 [7] (read-out: pEC50 (converted)), 44 nM; on Cannabinoid receptor 1 [8], over 10000 nM.
On to `CCCCOc1c(OC)ccc2cc(C(=O)NCCc3ccc(N)cc3)c(=O)[nH]c12`, for which the IC50 at Cannabinoid receptor 1 [2] is over 10000 nM. In addition, the Ratio IC50 with CHO [3] is over 18.3. Besides, the Emax at Cannabinoid receptor 2 [4] turned out to be 102%.
With `CCCCN1C(=O)/C(=C/NC(C)(C)C)C(=O)c2cccc(C)c21`, in the experiment on CHO [5], the Ratio EC50 is over 500. Besides, the Emax at Cannabinoid receptor 2 [6] stood at 135%. Besides, the EC50 was 20 nM on Cannabinoid receptor 2 [7] (read-out: EC50) and over 10000 nM on Cannabinoid receptor 1 [8].
For `CCCCN1C(=O)/C(=C/NC2CCCCC2)C(=O)c2cccc(CC)c21`, in the experiment on CHO [5], the Ratio EC50 was over 12.5. For the same compound, the Emax at Cannabinoid receptor 2 [6] was 86.9%. Further, the EC50 is 797 nM at Cannabinoid receptor 2 [7] (read-out: EC50), 800 nM at Cannabinoid receptor 2 [7] (read-out: pEC50 (converted)) and over 10000 nM on Cannabinoid receptor 1 [8].
In the same order, the values of `CCCCN1C(=O)/C(=C/NC(C)C(C)C)C(=O)c2cccc(C)c21` (centres undefined) are over 121, 120%, 82.7 nM, 83 nM and over 10000 nM.
For `Cc1c(C(=O)NN2CCCCC2)nn(-c2ccc(Cl)cc2Cl)c1-c1ccc(Cl)cc1`, at Cannabinoid receptor 2 [4], the Emax stood at 100%.
As for `CCCCN1C(=O)/C(=C/NC2CCCCC2)C(=O)c2cccc(OC)c21`, in the experiment on CHO [5], the Ratio EC50 was over 7.04. In addition, the maximum response (Emax) on Cannabinoid receptor 2 [6] came out at 86.1%. Further, the EC50 at Cannabinoid receptor 2 [7] (read-out: EC50) was 1420 nM; on Cannabinoid receptor 1 [8], over 10000 nM.
Consider `CCCN1C(=O)/C(=C/NC2CCCCC2)C(=O)c2cccc(C)c21`, for which the Ratio EC50 in the experiment with CHO [5] was over 20.1. The Emax on Cannabinoid receptor 2 [6] was 68.2%. In addition, the EC50 on Cannabinoid receptor 2 [7] (read-out: EC50) is 497 nM; at Cannabinoid receptor 1 [8], over 10000 nM.
The like results for `Cc1cccc2c1N(CC1CC1)C(=O)/C(=C/NC1CCCCC1)C2=O` were, in that order, over 14.9, 111%, 670 nM and over 10000 nM.
With `CCCCN1C(=O)/C(=C/NC2CC2)C(=O)c2cccc(C)c21`, the Ratio EC50 in the experiment with CHO [5] was over 19.9. Also, at Cannabinoid receptor 2 [6], the Emax is 81.8%. In addition, the results for the EC50 at Cannabinoid receptor 2 [7] (read-out: EC50) and at Cannabinoid receptor 1 [8] were 503 nM and over 10000 nM, respectively.
`CCCCCN1C(=O)/C(=C/NC2CCCCC2)C(=O)c2cc(OC(F)(F)F)ccc21`: the IC50 on Cannabinoid receptor 2 [1] and on Cannabinoid receptor 1 [2] was over 10000 nM in each case.
In the case of `Cc1cccc2c1N(CC1CC1)C(=O)/C(=C/NC(C)(C)C)C2=O`, the Ratio EC50 in the experiment on CHO [5] is over 96.2. Moreover, on Cannabinoid receptor 2 [6], the Emax is 140%. Besides, the EC50 at Cannabinoid receptor 2 [7] (read-out: EC50) is 104 nM; on Cannabinoid receptor 1 [8], over 10000 nM.
